Measured values reported in ChEMBL document CHEMBL1201862, “PubChem BioAssay data set” (2004).
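Compound exposure: 48 hours, 5 concentrations, 96-well plates. GI50 = concentration required for 50% inhibition of growth.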 Calls of active or inactive are those of the source. Rule as the data show it: active = GI50 up to about 1.1 µM and inactive = higher.

Key:
Experiment in all cases: growth of human tumour cells (NCI), 48 h
[1] = system: SF-295
[2] = system: XF498
[3] = system: CAKI-1
[4] = system: SF-268
[5] = system: OVCAR-8
[6] = system: NCI-H460
[7] = system: KM12
[8] = system: COLO 205
[9] = system: SR
[10] = system: Malme-3M
[11] = system: DU-145
[12] = system: LXFL 529
[13] = system: CCRF-CEM
[14] = system: MDA-MB-435
[15] = system: NCI/ADR-RES
[16] = system: DMS-114
[17] = system: U-251
[18] = system: SK-MEL-28
[19] = system: A549
[20] = system: HOP-62
[21] = system: PC-3
[22] = system: MOLT-4
[23] = system: OVCAR-4
[24] = system: SNB-75
[25] = system: HCC 2998
[26] = system: HT-29
[27] = system: NCI-H226
[28] = system: UACC-62
[29] = system: SF-539
[30] = system: IGROV-1
[31] = system: SK-MEL-2
[32] = system: SNB-19
[33] = system: KM-20L2
[34] = system: Hs-578T
[35] = system: SK-OV-3
[36] = system: HCT-15
[37] = system: T47D
[38] = system: TK-10
[39] = system: MCF7
[40] = system: DMS-273
[41] = system: 786-0
[42] = system: A498
[43] = system: OVCAR-5
[44] = system: M19-MEL
[45] = system: NCI-H23
[46] = system: M14
[47] = system: ACHN
[48] = system: EKVX
[49] = system: SN12C
[50] = system: BT-549
[51] = system: HCT-116
[52] = system: SK-MEL-5
[53] = system: NCI-H522
[54] = system: HOP-18
[55] = system: UACC-257
[56] = system: SW-620
[57] = system: DLD-1
[58] = system: HOP-92
[59] = system: SNB-78
[60] = system: HL-60
[61] = system: RPMI-8226
[62] = system: LOX IMVI
[63] = system: OVCAR-3
[64] = system: UO-31
[65] = system: K562
[66] = system: RXF 393
[67] = system: RXF 631

Measured: GI50

C[S+](C)C1(c2ccccc2)C(=O)c2ccccc2C1=O
> 51.1 µM: [36]
inactive: [1] 36.1 µM | [2] 32.4 µM | [3] > 100 µM | [4] 60.3 µM | [5] > 54.7 µM | [6] > 55.6 µM | [7] > 100 µM | [8] > 100 µM | [9] > 72.8 µM | [10] > 100 µM | [11] > 100 µM | [12] > 100 µM | [13] > 46.9 µM | [14] 42.6 µM | [15] 24.8 µM | [16] > 100 µM | [17] 22.5 µM | [18] > 100 µM | [19] 36.4 µM | [20] > 56.9 µM | [21] 76.2 µM | [22] > 83.2 µM | [23] > 47.6 µM | [24] 29.2 µM | [25] 17.7 µM | [26] > 100 µM | [27] 48 µM | [28] > 41 µM | [29] 28.7 µM | [30] > 69.3 µM | [31] > 43 µM | [32] 39 µM | [33] > 100 µM | [34] 24.4 µM | [35] > 100 µM | [37] 29.4 µM | [38] > 100 µM | [39] > 100 µM | [40] > 100 µM | [41] > 100 µM | [42] 73.8 µM | [43] > 49.3 µM | [44] > 100 µM | [45] > 65.9 µM | [46] > 59.6 µM | [47] > 65.6 µM | [48] 34 µM | [49] > 100 µM | [50] 11.8 µM | [51] > 54.3 µM | [52] > 38.5 µM | [53] > 48.8 µM | [54] > 100 µM | [55] > 64.9 µM | [56] > 100 µM | [57] > 100 µM | [58] > 60.8 µM | [59] > 100 µM | [60] > 31.6 µM | [61] > 62.1 µM | [62] 38.9 µM | [63] > 55.1 µM | [64] 32.1 µM | [65] > 51.6 µM | [66] 33.3 µM

COc1ccccc1-c1csc(CCC(N)C(=O)O)n1 (configuration not stated)
inactive: [1] > 100 µM | [5] > 100 µM | [6] > 100 µM | [7] > 100 µM | [9] > 100 µM | [13] > 100 µM | [16] > 100 µM | [17] > 100 µM | [18] > 100 µM | [19] > 100 µM | [20] > 100 µM | [22] > 100 µM | [26] > 100 µM | [28] > 100 µM | [30] > 100 µM | [32] > 100 µM | [33] > 100 µM | [35] > 100 µM | [38] 26.3 µM | [40] > 100 µM | [42] > 100 µM | [43] > 100 µM | [44] > 100 µM | [45] > 100 µM | [46] > 100 µM | [47] > 100 µM | [48] > 100 µM | [51] > 100 µM | [53] > 100 µM | [55] > 100 µM | [58] > 100 µM | [59] > 100 µM | [67] > 100 µM | [60] > 100 µM | [64] > 100 µM | [66] > 100 µM

COc1ccc2nccc(C3OC(=O)N4CCC(=O)CC34)c2c1 (configuration not stated)
inactive: [1] > 100 µM | [2] > 100 µM | [3] > 100 µM | [4] > 100 µM | [5] > 100 µM | [6] > 100 µM | [7] > 100 µM | [8] > 100 µM | [9] > 100 µM | [12] > 100 µM | [13] > 100 µM | [17] > 100 µM | [18] > 100 µM | [19] > 100 µM | [20] > 100 µM | [22] > 100 µM | [23] > 100 µM | [26] > 100 µM | [27] > 100 µM | [28] > 100 µM | [29] > 100 µM | [30] > 100 µM | [31] > 100 µM | [32] > 100 µM | [33] > 100 µM | [38] > 100 µM | [40] > 10 µM | [41] > 100 µM | [42] > 100 µM | [43] > 100 µM | [44] > 100 µM | [45] > 100 µM | [46] > 100 µM | [47] > 100 µM | [48] > 100 µM | [49] > 100 µM | [51] > 100 µM | [52] > 100 µM | [53] 6.84 µM | [55] > 100 µM | [56] > 100 µM | [58] 67.1 µM | [59] > 100 µM | [67] > 100 µM | [60] > 100 µM | [61] > 100 µM | [62] > 100 µM | [63] > 100 µM | [64] > 100 µM | [65] > 100 µM | [66] > 100 µM
> 100 µM: [36]

CCOc1ccc(NC(=O)C2=C(C)NC(C)=C(C(=O)Nc3ccc(OCC)cc3)C2c2ccccc2)cc1
inactive: [1] > 100 µM | [2] > 100 µM | [3] > 100 µM | [4] 98.6 µM | [5] > 100 µM | [6] > 100 µM | [7] 41.7 µM | [8] > 100 µM | [10] > 100 µM | [12] 51.3 µM | [13] 31.3 µM | [16] 44.2 µM | [17] > 100 µM | [18] > 100 µM | [19] > 100 µM | [20] > 100 µM | [22] 44.8 µM | [23] > 100 µM | [24] 95.7 µM | [25] > 100 µM | [26] > 100 µM | [27] > 100 µM | [29] > 100 µM | [30] > 100 µM | [31] 56.8 µM | [32] > 100 µM | [33] 67 µM | [35] > 100 µM | [38] > 100 µM | [40] > 100 µM | [41] 88.7 µM | [42] > 100 µM | [43] > 100 µM | [44] > 100 µM | [45] > 100 µM | [46] > 100 µM | [47] 74.6 µM | [48] > 100 µM | [49] > 100 µM | [52] 74.3 µM | [53] 38.3 µM | [55] > 100 µM | [56] > 100 µM | [57] 97.7 µM | [58] > 100 µM | [59] > 100 µM | [67] > 100 µM | [60] 29.9 µM | [61] 49.9 µM | [62] > 100 µM | [63] > 100 µM | [64] 29.2 µM | [65] 38.5 µM | [66] > 100 µM

O=C(O)/C(=C/c1ccccc1[N+](=O)[O-])c1ccccc1
> 100 µM: [36]
inactive: [1] > 100 µM | [2] > 100 µM | [3] > 100 µM | [4] > 100 µM | [5] > 100 µM | [6] > 100 µM | [7] > 100 µM | [8] > 100 µM | [9] > 100 µM | [12] > 100 µM | [16] > 100 µM | [17] > 100 µM | [18] > 100 µM | [19] > 100 µM | [20] > 100 µM | [22] > 100 µM | [23] > 100 µM | [24] > 100 µM | [25] > 100 µM | [26] > 100 µM | [27] > 100 µM | [28] > 100 µM | [29] > 100 µM | [30] > 100 µM | [31] > 100 µM | [32] > 100 µM | [33] > 100 µM | [35] > 100 µM | [38] > 100 µM | [40] > 100 µM | [41] > 100 µM | [42] > 100 µM | [43] > 100 µM | [44] > 100 µM | [45] > 100 µM | [46] > 100 µM | [47] > 100 µM | [48] > 100 µM | [49] > 100 µM | [51] > 100 µM | [52] > 100 µM | [53] > 100 µM | [55] > 100 µM | [56] > 100 µM | [57] > 100 µM | [59] > 100 µM | [67] > 100 µM | [60] > 100 µM | [61] > 100 µM | [62] > 100 µM | [63] > 100 µM | [64] > 100 µM | [65] > 100 µM
